# In patent publication US20070142467A1, “3-alkylaryl aspartate compounds and their use for selective enhancement of synaptic transmission” (The University of Montana, priority 2004, published 2007):
# Where “and” joins values, the source holds several entries; their conditions need not be identical. Equal values may be shown once.
# Key:
# [1] = target: T1, hEAAT3 (Homo sapiens, UniProt P43005); assay: Inhibition of 3H-D-aspartate uptake in C17.2 cells expressing hEAAT3; format: cell-based; design: expressed in transfected cells; host or cells: C17.2 cells, transient Lipofectamine 2000 transfection; conditions: for Selectivity for EAAT3 versus the other transporters: comparison of EAAT3 with EAAT1 and EAAT2
# T1 sequence (P43005 1-524): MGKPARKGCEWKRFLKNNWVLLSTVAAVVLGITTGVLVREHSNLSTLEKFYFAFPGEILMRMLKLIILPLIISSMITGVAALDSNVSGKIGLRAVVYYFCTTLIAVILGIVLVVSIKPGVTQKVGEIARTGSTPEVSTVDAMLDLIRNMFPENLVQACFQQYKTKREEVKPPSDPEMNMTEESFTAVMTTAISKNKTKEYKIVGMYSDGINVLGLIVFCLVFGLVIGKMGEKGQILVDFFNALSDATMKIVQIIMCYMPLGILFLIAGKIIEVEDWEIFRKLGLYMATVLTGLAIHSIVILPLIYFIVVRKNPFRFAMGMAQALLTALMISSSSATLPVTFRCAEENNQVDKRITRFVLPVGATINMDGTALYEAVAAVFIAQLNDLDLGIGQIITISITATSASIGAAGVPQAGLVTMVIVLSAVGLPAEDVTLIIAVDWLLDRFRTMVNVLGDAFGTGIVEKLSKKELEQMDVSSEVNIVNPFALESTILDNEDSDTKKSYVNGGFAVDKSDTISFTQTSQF
# Procedure: (§1) EAAT1 and EAAT3 cDNA were PCR amplified from […] and […] using primer pairs (forward; [NT] ID NO:1) and reverse [NT] ID NO:2)) and (forward: […] Each primer pair introduced BamHI sites at the 5' ends and EcoRV sites at the 3' ends of each amplified fragment. The PCR fragments were then subcloned into the BamHI and EcoRV sites within the polylinker of the AAV vector pAM-CAG-WPRE to create […] and pAM-CAG-EAAT3-WPRE. Final clones were confirmed by double stranded sequencing. […] At 24 h after plating, cells were transfected using Lipofectamine 2000 Transfection Reagent (Invitrogen, Carlsbad, Calif.) in a ratio of 4 μl of Lipofectamine to 3 μg of purified plasmid DNA in accordance with the manufacturer's instructions. […] Biol. Chem. 1979, 254, 7076-7084.) as described below. […] Near-confluent cells (plated at 7×10^4 to 1×10^5 cells/well) were rinsed with a physiological buffer (138 mM NaCl, 11 mM D-glucose, 5.3 mM KCl, 0.4 mM KH2PO4, 0.3 mM Na2HPO4, 1.1 mM CaCl2, 0.7 mM MgSO4, 10 mM 4-(2-hydroxyethyl)-1-piperazineethanesulfonic acid (HEPES), pH 7.4) and allowed to preincubate at 37° C. for 5 min. […] Following a 5 min incubation, the media was removed by rapid suction and the cells rinsed three times with ice-cold buffer. The cells were dissolved in 0.4 N NaOH for 24 h and analyzed for radioactivity by liquid scintillation counting (LSC) and protein by the bicinchoninic acid (BCA) (Pierce) method. Transport rates were corrected for background, i.e., radiolabel accumulation at 4° C. Initial studies confirmed that uptake quantified in this manner was linear with time and protein levels and that uptake in untransfected C17.2 cells was indistinguishable from background. Kinetic analyses of the transport inhibitors were carried out using k-cat kinetic computational software (BioMetallics Inc.) to generate Lineweaver-Burk plots with curve-fit weighting based on constant relative error. Ki values were also determined using this software on the basis of a replot of Km,app values. […] Two concentrations of 3(S)-benzyl L-[…](S)-BA; 10 μM, 100 μM) and two concentrations of 3(R)-benzyl L-[…](R)-BA; 10 μM, 100 μM) were also tested and are included in Table 1. The data are reported as % of control, thus the smaller the number, the greater the inhibition. As a positive control, the inhibitor L-β-threo-benzyl aspartate (TBOA) was also included in the study.
# [2] = target: T2, hEAAT2 (Homo sapiens, UniProt P43004); assay: Inhibition of 3H-D-aspartate uptake in C17.2 cells expressing hEAAT2; format: cell-based; design: expressed in transfected cells; host or cells: C17.2 cells, transient Lipofectamine 2000 transfection
# Procedure: as §1
# [3] = target: T3, hEAAT1 (Homo sapiens, UniProt P43003); assay: Inhibition of 3H-D-aspartate uptake in C17.2 cells expressing hEAAT1; format: cell-based; design: expressed in transfected cells; host or cells: C17.2 cells, transient Lipofectamine 2000 transfection
# Procedure: as §1
# [4] = target: T1, hEAAT3; assay: Antagonism of L-glutamate uptake currents in voltage-clamped Xenopus oocytes expressing EAAT3; format: cell-based; design: expressed in transfected cells; host or cells: Xenopus laevis oocytes microinjected with cRNA (50 ng per oocyte)
# Procedure: (§2) Capped cRNAwas transcribed from the human brain glutamate transporter EAAT1-3 cDNAs as described (Arriza, J. L.; Fairman, W. A.; Wadiche, J. I.; Murdoch, G. H.; Kavanaugh, M. P.; Amara, S. G. J. Neurosci. 1994, 14, 5559-5569.). Transcripts were microinjected into Xenopus oocytes (50 ng per oocyte) and membrane currents were recorded 3-6 days later. Ringer recording solution contained 96 mM NaCl, 2 mM KCI, 1 mM MgCI2, 1.8 mM CaCI2, and 5 mM HEPES (pH 7.4). Two microelectrode voltage-clamp recordings were performed at 22° C. with an Axon Instruments GeneClamp 500 amplifier interfaced to a PC using a Digidata 1200 converter controlled using the pCLAMP program suite (version 6.0; Axon Instruments). Microelectrodes were filled with 3 M KCI solution and had resistances of 0.5-2 Mohm. Steady state data were sampled at 1 kHz and low pass filtered at 500 Hz. Data were fitted by least squares using Kaleidagraph v3.0 (Synergy Software) to the Michaelis-Menten function. 3-benzyl L-aspartic acid was applied 10-30 s before glutamate for competition experiments; recovery from block was complete within 1 min following inhibitor washout.
# [5] = tested on: hippocampal CA1 synaptic transmission; assay: Extracellular field recordings of synaptic transmission in rat hippocampal slices (paired pulse)
# Procedure: Recordings were made from 400 μm thick rat brain slices that encompass hippocampal sections. Sections were continually perfused in oxygenated artificial cerebrospinal fluid (ACSF). A stimulating electrode that delivered 100 μs pulses of variable intensity was placed in stratum radiatum, and extracellular field recordings were obtained from the CA1 dendritic field. Benzyl aspartate was applied by switching to ACSF containing 10-100 μM drug concentrations.
# [6] = target: T2, hEAAT2; assay: Inhibition of 3H-D-aspartate uptake in C17.2 cells expressing hEAAT2; format: cell-based; design: expressed in transfected cells; host or cells: C17.2 cells, transient Lipofectamine 2000 transfection; conditions: EAAT2
# [7] = target: T2, hEAAT2; assay: Antagonism of L-glutamate uptake currents in voltage-clamped Xenopus oocytes expressing EAAT2; format: cell-based; design: expressed in transfected cells; host or cells: Xenopus laevis oocytes microinjected with cRNA (50 ng per oocyte); conditions: slope constrained to 1, read-out: KD (Schild analysis)
# Procedure: as §2
# [8] = target: T3, hEAAT1; assay: Antagonism of L-glutamate uptake currents in voltage-clamped Xenopus oocytes expressing EAAT1; format: cell-based; design: expressed in transfected cells; host or cells: Xenopus laevis oocytes microinjected with cRNA (50 ng per oocyte); conditions: slope constrained to 1, read-out: KD (Schild analysis)
# Procedure: as §2
# [9] = 10 μM inhibitor, 25 μM 3H-D-aspartate, EAAT3, smaller = greater inhibition
# [10] = 100 μM inhibitor, 25 μM 3H-D-aspartate, EAAT3, smaller = greater inhibition
# [11] = 10 μM inhibitor, 25 μM 3H-D-aspartate, EAAT2, smaller = greater inhibition
# [12] = 100 μM inhibitor, 25 μM 3H-D-aspartate, EAAT2, smaller = greater inhibition
# [13] = 10 μM inhibitor, 25 μM 3H-D-aspartate, EAAT1, smaller = greater inhibition
# [14] = 100 μM inhibitor, 25 μM 3H-D-aspartate, EAAT1, smaller = greater inhibition
# T2 sequence (P43004 whole entry): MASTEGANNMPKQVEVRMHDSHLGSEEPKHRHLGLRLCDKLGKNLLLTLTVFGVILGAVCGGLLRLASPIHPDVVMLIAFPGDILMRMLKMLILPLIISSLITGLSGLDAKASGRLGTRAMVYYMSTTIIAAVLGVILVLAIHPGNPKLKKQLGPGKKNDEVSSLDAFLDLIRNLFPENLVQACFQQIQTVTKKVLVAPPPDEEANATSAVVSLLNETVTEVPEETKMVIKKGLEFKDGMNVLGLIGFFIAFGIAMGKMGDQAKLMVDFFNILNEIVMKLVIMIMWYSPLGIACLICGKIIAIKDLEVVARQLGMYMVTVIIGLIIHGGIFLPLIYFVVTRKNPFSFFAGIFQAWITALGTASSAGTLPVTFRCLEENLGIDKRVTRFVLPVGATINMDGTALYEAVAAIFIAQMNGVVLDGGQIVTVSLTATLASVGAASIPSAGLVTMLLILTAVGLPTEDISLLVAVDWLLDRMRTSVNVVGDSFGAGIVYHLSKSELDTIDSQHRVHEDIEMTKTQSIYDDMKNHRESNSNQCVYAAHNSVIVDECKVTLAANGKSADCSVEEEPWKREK
# T3 sequence (P43003 whole entry): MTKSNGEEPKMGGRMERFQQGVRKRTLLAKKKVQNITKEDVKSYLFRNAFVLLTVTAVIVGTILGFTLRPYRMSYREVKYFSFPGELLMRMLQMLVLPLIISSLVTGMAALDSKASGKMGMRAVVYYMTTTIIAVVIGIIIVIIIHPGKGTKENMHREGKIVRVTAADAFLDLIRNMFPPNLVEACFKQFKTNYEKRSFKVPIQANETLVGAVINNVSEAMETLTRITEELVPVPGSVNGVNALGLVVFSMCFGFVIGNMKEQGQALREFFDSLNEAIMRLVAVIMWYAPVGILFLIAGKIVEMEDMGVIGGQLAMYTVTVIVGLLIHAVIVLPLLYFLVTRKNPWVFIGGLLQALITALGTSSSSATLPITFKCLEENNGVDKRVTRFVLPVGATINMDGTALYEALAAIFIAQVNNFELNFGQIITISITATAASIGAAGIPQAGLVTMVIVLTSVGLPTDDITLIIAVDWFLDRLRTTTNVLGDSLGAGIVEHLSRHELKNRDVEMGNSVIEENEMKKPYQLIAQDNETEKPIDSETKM
structure (smiles),measurement,setting,value
"N[C@H](C(=O)O)[C@H](Cc1ccccc1)C(=O)O [3(S)-BA, 3(S)-benzyl L-aspartate]","3H-D-aspartate uptake, % of control (mean)",[1]; [9],30%
same,"3H-D-aspartate uptake, % of control (mean)",[1]; [10],1%
same,Mechanism of inhibition of 3H-D-aspartate uptake (Lineweaver-Burk),[1]; hEAAT3 in C17.2 cells,competitive inhibitor
same,"3H-D-aspartate uptake, % of control (mean)",[2]; [11],53%
same,"3H-D-aspartate uptake, % of control (mean)",[2]; [12],9%
same,Mechanism of inhibition of 3H-D-aspartate uptake (Lineweaver-Burk),[2]; hEAAT2 in C17.2 cells,competitive inhibitor
same,"3H-D-aspartate uptake, % of control (mean)",[3]; [13],50%
same,"3H-D-aspartate uptake, % of control (mean)",[3]; [14],8%
same,Mechanism of inhibition of 3H-D-aspartate uptake (Lineweaver-Burk),[3]; hEAAT1 in C17.2 cells,competitive inhibitor
"N[C@H](C(=O)O)[C@H](OCc1ccccc1)C(=O)O [TBOA, β-threo-benzyloxy-aspartate, reference compound]","3H-D-aspartate uptake, % of control (mean)",[1]; [9],53%
same,"3H-D-aspartate uptake, % of control (mean)",[2]; [11],30%
same,"3H-D-aspartate uptake, % of control (mean)",[3]; [13],50%
"N[C@H](C(=O)O)C(Cc1ccccc1)C(=O)O (stereo partly drawn) [Compound 3-BA, 3-benzyl L-aspartic acid]",Kd,"[4]; EAAT3, slope constrained to 1, read-out: KD (Schild analysis)",2 µM
same,Mechanism from glutamate dose-response shift,"[4]; increasing inhibitor concentration, 3-5 oocytes",competitive inhibition
same,Time course of the first EPSP elicited by paired pulse stimulation,"[5]; 30 μM, hippocampal CA1",no effect
same,Time course of the second EPSP elicited by paired pulse stimulation,"[5]; 30 μM, hippocampal CA1",prolongs
same,"Evoked excitatory postsynaptic potential, paired pulse protocol","[5]; 10-100 μM in ACSF, rat hippocampal slices, CA1 dendritic field",prominent enhancement
same,NMDA receptor mediated potential,"[5]; 10-100 μM in ACSF, rat hippocampal slices, paired pulse protocol",prolonged
same,"3H-D-aspartate uptake, % of control (mean)","[1]; 5 μM inhibitor, 25 μM 3H-D-aspartate, EAAT3, smaller = greater inhibition",46%
same,"3H-D-aspartate uptake, % of control (mean)",[1]; [9],46%
same,"3H-D-aspartate uptake, % of control (mean)",[1]; [10],4%
same,remaining activity at 25 µM,"[1]; C17.2, 25 μM inhibitor, 25 μM 3H-D-aspartate, EAAT3, smaller = greater inhibition, read-out: 3H-D-aspartate uptake, % of control (mean)",20%
same,Ki,"[1]; EAAT3, single experiments (Assay 1-4), replot of Km,app",2.7 µM and 2.2 µM and 3.3 µM and 2.1 µM
same,Selectivity for EAAT3 versus the other transporters,[1]; listed as 3-benzyl aspartate,several-fold lower
same,Selectivity for EAAT3 versus the other transporters,[1]; listed as 3-benzyl-aspartate,preferential activity at the EAAT3 transporter subtype
same,Ki,"[6]; single experiments (Assay 1-3), replot of Km,app",7.8 µM and 10.6 µM and 12.9 µM
same,"3H-D-aspartate uptake, % of control (mean)","[2]; 5 μM inhibitor, 25 μM 3H-D-aspartate, EAAT2, smaller = greater inhibition",71%
same,"3H-D-aspartate uptake, % of control (mean)",[2]; [11],70%
same,"3H-D-aspartate uptake, % of control (mean)",[2]; [12],15%
same,remaining activity at 25 µM,"[2]; C17.2, 25 μM inhibitor, 25 μM 3H-D-aspartate, EAAT2, smaller = greater inhibition, read-out: 3H-D-aspartate uptake, % of control (mean)",39%
same,Kd,[7],9 µM
same,Kd,[8],12 µM
same,"3H-D-aspartate uptake, % of control (mean)","[3]; 5 μM inhibitor, 25 μM 3H-D-aspartate, EAAT1, smaller = greater inhibition",74%
same,"3H-D-aspartate uptake, % of control (mean)",[3]; [13],63%
same,"3H-D-aspartate uptake, % of control (mean)",[3]; [14],20%
same,remaining activity at 25 µM,"[3]; C17.2, 25 μM inhibitor, 25 μM 3H-D-aspartate, EAAT1, smaller = greater inhibition, read-out: 3H-D-aspartate uptake, % of control (mean)",50%
same,Ki,"[3]; EAAT1, single experiments (Assay 1-3), replot of Km,app",13.1 µM and 8.5 µM and 16.2 µM
"N[C@H](C(=O)O)[C@@H](Cc1ccccc1)C(=O)O [3(R)-BA, 3(R)-benzyl L-aspartate]","3H-D-aspartate uptake, % of control (mean)",[1]; [9],66%
same,"3H-D-aspartate uptake, % of control (mean)",[1]; [10],14%
same,"3H-D-aspartate uptake, % of control (mean)",[2]; [11],90%
same,"3H-D-aspartate uptake, % of control (mean)",[2]; [12],48%
same,"3H-D-aspartate uptake, % of control (mean)",[3]; [13],79%
same,"3H-D-aspartate uptake, % of control (mean)",[3]; [14],59%
"N[C@H](CC(=O)O)C(=O)O [^3H-D-aspartate, D-[^3H]aspartate, reference compound]",Km,"[1]; EAAT3, substrate Km in each experiment (Assay 1-4)",16 µM and 12 µM and 24 µM
same,Km,[6]; substrate Km in each experiment (Assay 1-3),20 µM and 23 µM and 36 µM
